Source: publication PMC9688159 (Cancers, 2022)
Where two headings read alike, the source gives them in different places. Values belong to the compound of their own block, whether it stands above or below them. Square brackets hold non-standard residues; d marks the D form. Peptide text beside a SMILES is read from it. pGlu = O=C1CC[C@@H](C(=O)O)N1

Tests used:
[1] = system: PANC-1, BxPC-3 and NHF cells; assay: cell migration (scratch assay), statements for several cell lines together; type: cell-based, human; details: for effect on cell migration: scratch assay, 0-40 µM, 24 and 48 h
Protocol: In all experiments, cells were seeded in 24-well plates at a density of 7 × 10^3 (PANC-1, BxPC-3) and 4 × 10^3 (NHF) cells per well and incubated for 48 h. Next, clear lines were made using a sterile 10 μL pipette tip. The medium was carefully removed, and 500 µL of fresh medium was added to the cells. For evaluation of the effect of each compound on cell proliferation, cells were treated with different concentrations (0–40 µM) of tested compounds. Phase-contrast microscopic pictures were taken at 24, 48, and 72 h, and the area of the wound was measured using Image J software (National Institute of Health, V1.5, Bethesda, […], USA). […] Phase-contrast microscopic pictures were taken at 6 and 24 h. The cell migration rate was calculated by measuring the area of the wound at each timepoint. The measurements were performed using ImageJ software. The medium was not changed during the experiment. Due to its inability to form a confluent monolayer, cell migration was not evaluated for Capan-1 cells.

[2] = system: normal human fibroblasts (NHF); assay: cell viability (MTS); type: cell-based
Source text: (§1) Pancreatic carcinoma cell lines, PANC-1 (ACC 783), BxPC-3 (ACC 760), and Capan-1 (ACC 244), were obtained from DSMZ (Braunschweig, Germany). Normal human fibroblasts (NHF; 106-05A) were purchased from Sigma-Aldrich (Poznan, Poland). PANC-1 and NHF cells were maintained in DMEM containing 10% fetal bovine serum (FBS) and 1% antibiotic solution. BxPC-3 and Capan-1 cells were maintained in […] with 15% FBS and 1% penicillin/streptomycin solution. Cells were regularly tested for mycoplasma contamination.
(§2) In all experiments, cells were seeded in 96-well plates at a density of 4 × 10^3 (PANC-1, BxPC-3), 5 × 10^3 (Capan-1), and 2 × 10^3 (NHF) cells per well. Plates were incubated for 24 h at 37 °C.
(§3) To evaluate the effect of each compound on cell viability, cells were treated with different concentrations (0–60 µM) of tested compounds for 24, 48, and 72 h. Next, 20 µL of MTS solution was added to each well. Plates were incubated for 2 h at 37 °C. The absorbance was measured at 490 nm. Untreated cells served as a negative control. The number of viable cells is directly proportional to the intensity of color produced. Cell viability is expressed as a percentage of control cells.
(§4) Next, the medium was removed and a fresh medium containing tested compounds (at a concentration of 0–60 µM) was added. Plates were incubated for a further 24 h. Next, 20 µL of MTS solution was added to each well, and incubation was started (for 2 h at 37 °C). The absorbance was measured at 490 nm. Untreated cells served as a negative control.

[3] = system: PANC-1, BxPC-3, Capan-1 cells and NHF; type: cell-based, human
Source text: as §1, §2, §3

BxPC-3 cells [4] = assay: cell viability (MTS); type: cell-based, human
Source text: as §1, §2, §3, §4

PANC-1 cells = assay: cell viability (MTS); type: cell-based, human
Source text: as §1, §2, §3, §4

Capan-1 cells = assay: cell viability (MTS); type: cell-based, human
Source text: as §1, §2, §3, §4

DRD1 [5] = target: T1, DRD1 (Rattus norvegicus, UniProt P18901); details: read-out: IC50, DRD1; rat spinal cord homogenates; 2 nM [3H]SCH-23390
T1 sequence (P18901 whole entry): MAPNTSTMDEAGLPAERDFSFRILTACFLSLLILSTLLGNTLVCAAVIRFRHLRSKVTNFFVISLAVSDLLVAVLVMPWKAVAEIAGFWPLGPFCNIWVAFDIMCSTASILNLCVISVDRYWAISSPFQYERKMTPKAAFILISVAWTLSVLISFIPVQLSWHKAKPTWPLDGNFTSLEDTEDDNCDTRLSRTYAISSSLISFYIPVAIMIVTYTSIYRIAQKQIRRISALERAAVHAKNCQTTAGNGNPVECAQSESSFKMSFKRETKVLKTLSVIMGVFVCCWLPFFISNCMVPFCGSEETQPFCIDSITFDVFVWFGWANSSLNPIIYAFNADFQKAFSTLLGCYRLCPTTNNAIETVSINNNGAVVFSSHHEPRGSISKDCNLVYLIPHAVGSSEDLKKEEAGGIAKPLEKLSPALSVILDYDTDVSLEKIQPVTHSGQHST
Protocol: (§5) Rats were decapitated, and their brains and spinal cords were quickly removed. […] Briefly, the brains and spinal cords were homogenized in freshly prepared ice-cold Tris-HCl buffer (50 mM, pH 7.4) and centrifuged at 18,000 rpm for 20 min (4 °C). The resulting supernatant was removed while the pellet was taken up in the original volume of Tris-HCl buffer. The homogenate was further incubated at 37 °C for 30 min and again centrifuged. The received pellet was consequently suspended in 50 mM Tris-HCl (pH 7.4) buffer and kept until analysis at −80 °C.
(§6) In DRD1 displacement, the Tris-HCl buffer (pH 7.4) contained 120 mM NaCl, 5 mM KCl, 1 mM MgCl2, 2 mM CaCl2, and 1 µM mianserin. In DRD2 displacement, the Tris-HCl buffer (pH 7.4) was a mixture of 5 mM KCl, 2 mM MgCl2, 2 mM CaCl2, and 1 µM ketanserin. The incubation of tissue membranes was performed in the presence of the unlabeled ligands in increasing concentrations (10^−10–10^−5 M) at 35 °C for 45 min with [^3H]SCH-23390 and at 25 °C for 120 min with [^3H]spiperone. […] The experiment was performed in duplicate and repeated at least three times.
(§7) In the competition binding assays, the IC50 value was calculated using ‘one site competition’ fitting. The inhibitory activity was presented as a percentage of the specific binding observed.

GRP-Rs = system: GRP-Rs; design: method as in PMID 1850273; details: compared with GRP; cited from earlier work
DRD1 [6] = target: T1, DRD1; assay: biochemical
Protocol: as §5, §6, §7

DRD2 [7] = target: T2, DRD2 (Rattus norvegicus, UniProt P61169); assay: ligand-stimulated [35S]GTPγS binding (G-protein activity), membrane homogenates; type: biochemical; details: for maximal G-protein efficacy (Emax): basal activity = 100%; for EC50: logarithm of EC50, read-out: potency (log EC50) (converted)
T2 construct: from tissue; host or cells: Wistar rat brain and spinal cord membranes
T2 sequence (P61169 whole entry): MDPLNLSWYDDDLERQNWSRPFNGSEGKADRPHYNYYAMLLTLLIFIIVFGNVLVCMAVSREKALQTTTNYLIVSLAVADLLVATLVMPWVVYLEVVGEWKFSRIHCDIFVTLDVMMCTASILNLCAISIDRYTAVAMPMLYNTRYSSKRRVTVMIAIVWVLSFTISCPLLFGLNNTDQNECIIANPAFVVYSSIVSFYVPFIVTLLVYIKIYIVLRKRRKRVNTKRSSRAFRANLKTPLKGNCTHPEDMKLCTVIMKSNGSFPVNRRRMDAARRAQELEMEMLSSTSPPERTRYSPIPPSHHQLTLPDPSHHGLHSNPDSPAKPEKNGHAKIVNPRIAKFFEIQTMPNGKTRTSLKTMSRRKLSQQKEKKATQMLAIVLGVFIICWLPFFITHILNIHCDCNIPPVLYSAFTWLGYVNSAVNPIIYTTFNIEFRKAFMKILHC

BxPC-3 cells [8] = assay: cell migration (scratch assay); type: cell-based, human; details: BxPC-3, after 24 h
Protocol: In all experiments, cells were seeded in 24-well plates at a density of 7 × 10^3 (PANC-1, BxPC-3) and 4 × 10^3 (NHF) cells per well and incubated for 48 h. Next, clear lines were made using a sterile 10 μL pipette tip. The medium was carefully removed, and 500 µL of fresh medium was added to the cells.
For evaluation of the effect of each compound on cell proliferation, cells were treated with different concentrations (0–40 µM) of tested compounds. Phase-contrast microscopic pictures were taken at 24, 48, and 72 h, and the area of the wound was measured using Image J software (National Institute of Health, V1.5, Bethesda, MA, USA).
The cell migration rate was calculated by measuring the area of the wound at each timepoint. The measurements were performed using ImageJ software. The medium was not changed during the experiment. Due to its inability to form a confluent monolayer, cell migration was not evaluated for Capan-1 cells.

DRD2 [9] = target: T2, DRD2; assay: [3H]spiperone competition binding (DRD2 displacement), membrane homogenates; details: 0.25 nM [3H]spiperone
Protocol: as §5, §6, §7

[10] = Homo sapiens, Fibroblast, NHF, 24 h
[11] = Homo sapiens, Fibroblast, NHF, 48 h
[12] = Homo sapiens, Fibroblast, NHF, 72 h
[13] = rat spinal cord membrane homogenates

SMILES: NCCc1ccc(O)c(O)c1 [Dopamine]
- effect on cell migration [1]: did not significantly increase
- IC50 [2, 10]: > 60 µM
- IC50 [2, 11]: > 60 µM
- IC50 [2, 12]: > 60 µM
- effect on cell viability ([3]; all tested cells): increase in cell viability
- IC50 (BxPC-3 cells [4]; Homo sapiens, BXPC-3, 24 h): > 60 µM
- IC50 (BxPC-3 cells [4]; Homo sapiens, BXPC-3, 48 h): > 60 µM
- IC50 (BxPC-3 cells [4]; Homo sapiens, BXPC-3, 72 h): > 60 µM
- IC50 (PANC-1 cells; Homo sapiens, PANC-1, 24 h): > 60 µM
- IC50 (PANC-1 cells; Homo sapiens, PANC-1, 48 h): > 60 µM
- IC50 (PANC-1 cells; Homo sapiens, PANC-1, 72 h): > 60 µM
- IC50 (Capan-1 cells; Homo sapiens, CAPAN-1, 24 h): > 60 µM
- IC50 (Capan-1 cells; Homo sapiens, CAPAN-1, 48 h): > 60 µM
- IC50 (Capan-1 cells; Homo sapiens, CAPAN-1, 72 h): > 60 µM

SMILES: CSCC[C@H](NC(=O)[C@H](Cc1ccccc1)NC(=O)[C@H](Cc1c[nH]cn1)NC(=O)CNC(=O)[C@@H](NC(=O)[C@H](C)NC(=O)[C@H](Cc1c[nH]c2ccccc12)NC(=O)[C@H](CCC(N)=O)NC(=O)[C@@H]1CCCN1C(=O)[C@@H](NC(=O)[C@@H]1CCC(=O)N1)C(C)C)C(C)C)C(N)=O [Ranatensin] ([pGlu]VPQWAVGHFM-NH2)
- IC50 (DRD1 [5]): > 10 µM
- affinity for GRP-Rs (GRP-Rs): equal affinity for GRP-Rs to GRP itself
- IC50 (DRD1 [6]): > 10 µM
- functional character at DRD2 (DRD2 [7]; conclusion from binding and [35S]GTPγS assays): DRD2 agonist
- maximal G-protein efficacy (Emax) (DRD2 [7]; rat brain membrane homogenates): 124.1%
- EC50 (DRD2 [7]; rat brain membrane homogenates): 0.0184 µM
- Emax in presence of selective DRD2 antagonist risperidone (DRD2 [7]; rat brain, basal = 100%): 101.5%
- maximal G-protein efficacy (Emax) (DRD2 [7]; [13]): 119.8%
- EC50 (DRD2 [7]; [13]): 0.78 µM
- Emax in presence of selective DRD1 antagonist SCH-39166 (DRD2 [7]; rat spinal cord membranes, basal = 100%): 117.4%
- Emax in presence of selective DRD2 antagonist risperidone (DRD2 [7]; rat spinal cord, basal = 100%): 100.0%
- migration rate of DRD2-blocked cells ([1]; PANC-1 and BxPC-3, risperidone pretreated, 24 h): slower in comparison to cells treated with RAN alone
- effect on cell migration [1]: migrated at a similar rate to untreated cells
- concentration with total wound closure (BxPC-3 cells [8]): ≥ 20 µM
- IC50 ([2]; NHF, 48 h): > 60 µM
- IC50 ([2]; NHF, 72 h): > 60 µM
- effect on cell viability ([2]; NHF, longer exposure (48 and 72 h)): reduction in fibroblast viability compared to untreated cells
- effect on cell viability ([3]; cancer cells, 24 h): lower viability compared to the untreated cells
- IC50 (BxPC-3 cells [4]; BxPC-3, 48 h): > 60 µM
- IC50 (BxPC-3 cells [4]; BxPC-3, 72 h): > 60 µM
- IC50 (PANC-1 cells; PANC-1, 48 h): > 60 µM
- IC50 (PANC-1 cells; PANC-1, 72 h): > 60 µM
- effect on cell viability (PANC-1 cells; PANC-1, prolonged incubation (48 and 72 h)): significant increase in PANC-1 cell viability
- IC50 (Capan-1 cells; Capan-1, 48 h): > 60 µM
- IC50 (Capan-1 cells; Capan-1, 72 h): > 60 µM
- decrease in viability compared to the control (Capan-1 cells; Capan-1, RAN only, 24 h): around 20%
- IC50 (DRD2 [9]; rat brain membranes): 0.0127 µM
- IC50 (DRD2 [9]; rat spinal cord homogenates): 0.0488 ± 0.00115 µM

SMILES: Cc1nc2n(c(=O)c1CCN1CCC(c3noc4cc(F)ccc34)CC1)CCCC2 [Risperidone]
- effect on cell viability [2]: no effect
- decrease in cell viability [3]: up to 20%

Continued, in another order:

- IC50 (BxPC-3 cells [4]; Homo sapiens, BXPC-3, 24 h): > 60 µM
- IC50 (BxPC-3 cells [4]; Homo sapiens, BXPC-3, 48 h): 0.643 ± 0.05 µM
- IC50 (BxPC-3 cells [4]; Homo sapiens, BXPC-3, 72 h): 0.296 ± 0.15 µM
- IC50 (PANC-1 cells; Homo sapiens, PANC-1, 24 h): > 60 µM
- IC50 (PANC-1 cells; Homo sapiens, PANC-1, 72 h): 0.28 ± 0.031 µM
SMILES: Nc1ccn([C@@H]2O[C@H](CO)[C@@H](O)C2(F)F)c(=O)n1 [Gemcitabine, gemcitabine]
- effect on cell migration [1]: slower migration with increasing concentration
- IC50 [2, 10]: > 60 µM
- IC50 [2, 12]: 1.28 ± 0.1 µM
- IC50 (Capan-1 cells; Homo sapiens, CAPAN-1, 24 h): > 60 µM
- IC50 (Capan-1 cells; Homo sapiens, CAPAN-1, 72 h): 0.657 ± 0.13 µM

- IC50 (BxPC-3 cells [4]; Homo sapiens, BXPC-3, 24 h): 21.7 ± 2.27 µM
- IC50 (BxPC-3 cells [4]; Homo sapiens, BXPC-3, 48 h): 16.1 ± 0.94 µM
- IC50 (BxPC-3 cells [4]; Homo sapiens, BXPC-3, 72 h): 17.8 ± 1.38 µM
- IC50 (PANC-1 cells; Homo sapiens, PANC-1, 24 h): 15.1 ± 1.51 µM
- IC50 (PANC-1 cells; Homo sapiens, PANC-1, 48 h): 17 ± 1.08 µM
- IC50 (PANC-1 cells; Homo sapiens, PANC-1, 72 h): 20.3 ± 2.02 µM
SMILES: O=c1[nH]c2ccccc2n1C1CCN(CCCC(c2ccc(F)cc2)c2ccc(F)cc2)CC1 [Pimozide, pimozide]
- effect on cell migration [1]: decreased with the increasing concentration
- IC50 [2, 10]: 38.7 ± 1.37 µM
- IC50 [2, 11]: 28.7 ± 3.82 µM
- IC50 [2, 12]: 23.6 ± 0.92 µM
- IC50 (Capan-1 cells; Homo sapiens, CAPAN-1, 24 h): 25.3 ± 3.11 µM
- IC50 (Capan-1 cells; Homo sapiens, CAPAN-1, 48 h): 20.7 ± 1.3 µM
- IC50 (Capan-1 cells; Homo sapiens, CAPAN-1, 72 h): 20 ± 1.79 µM
